Results published in publication PMC7139549, “TLD1433 Photosensitizer Inhibits Conjunctival Melanoma Cells in Zebrafish Ectopic and Orthotopic Tumour Models” (Cancers, 2020).

Key:
[1] = system: CM engrafted zebrafish embryos; assay: Maximum tolerated dose in CM engrafted zebrafish embryos (ectopic and orthotopic model); assay type: in vivo, Zebrafish (Danio rerio); conditions: light-activated
Description: To engage both CM models for testing the efficacy of TLD1433 as a potential new PDT treatment strategy to combat CM growth, first, the MTD of TLD1433 delivered into zebrafish embryos engrafted with CM cells was measured (Table 2) following the same procedure as already described for wild type embryos (Figure 5 and Table 2). Engrafted embryos were more sensitive to light-activated TLD1433 than non-engrafted embryos (Table 2). MTD concentrations of 4.6 nM and 2.3 mM were delivered by WA, IV and RO administration. […] The TLD1433 concentration in these experiments was not increased further as the initial treatment was already at the pre-determined MTD.
For determining the MTD of the WA of the TLD1433 solution in wild type zebrafish, solutions of 2.3 nM, 4.6 nM, 9.2 nM, 11.5 nM, 23 nM were made before the experiment. At 2.5, 3.5, 4.5, 5.5 dpf, TLD1433 was added to the fish water and maintained for 12 h. At 3, 4, 5, 6 dpf, the fish water was refreshed and after 1 h, embryos were exposed to green light for 90 min (520 nm, 21 mW/cm^2, 114 J/cm^2). For the IV and RO administration, TLD1433 solutions (1.15 mM, 2.3 mM, 4.6 mM, 9.2 mM, 11.5 mM) were prepared before the experiment. At 3, 4, 5, 6 dpf, 1nL of TLD1433 was injected via the dorsal vein or the RO site and maintained for 1 h. After each of the 4 injections, the embryos were exposed to green light for 90 min (520 nm, 21 mW/cm^2, 114 J/cm^2). The images of treated and wild type embryos at 6 dpf were taken using a DFC420C camera coupled to a Leica MZ16FA fluorescence microscope. In order to determine the MTD of tumour cell bearing zebrafish, TLD1433 was performed according to the same procedure, delivered by WA, IV and […] administration as described above for the wild type embryos.

CRMM1 cells = assay: Annexin-V-FITC / Propidium Iodide FACS, CRMM1; assay type: cell-based, Human
From the text: Depending on the nature and intracellular localization of a PS, the light dose, and the cell type, PDT is known to provoke either necrosis, apoptosis, or autophagy. In order to investigate the death mechanism induced by green light-activated TLD1433 in CRMM1 and CRMM2 cells, the cells were stained with Annexin V and propidium iodide, and further analysed by fluorescence-activated cell sorting (FACS).
Figure 3 Green light irradiation of TLD1433 induces apoptosis and necrosis in CRMM1 and CRMM2 cells. (A) CRMM1 and (C) CRMM2 were stained with Annexin-V-FITC and Propidium Iodide. The percentages of live, early apoptotic, later apoptotic and necrotic cells in CRMM1 (B) and CRMM2 (D) were counted by FACS. Results are presented as means ± SD from three independent experiments. […]

**Q.** Cc1ccnc(-c2cc(C)ccn2)c1.Cc1ccnc(-c2cc(C)ccn2)c1.[Cl-].[Cl-].[Ru+2].c1csc(-c2ccc(-c3ccc(-c4nc5c6cccnc6c6ncccc6c5[nH]4)s3)s2)c1 [TLD1433] was tested. Which “Maximum Tolerated Dose (MTD)” value ([1]; Intravenous 1 nL) did it give?
**A.** 2.3 mM

**Q.** And the “Maximum Tolerated Dose (MTD)” value ([1]; Retro-orbital 1 nL)?
**A.** 2.3 mM

**Q.** What about the “Maximum Tolerated Dose (MTD)” value ([1]; Water administration) of the same compound?
**A.** 4.6e-06 mM

**Q.** And the “cell fate by FACS (in words)” value (CRMM1 cells; CRMM1, dark TLD1433 group)?
**A.** most cells were found alive

**Q.** And the “cell fate by FACS (in words)” value (CRMM1 cells; CRMM1, light-activated TLD1433 group)?
**A.** about half of the cells were found dead
